Measurements taken from ChEMBL document CHEMBL1201862, “PubChem BioAssay data set” (2004).
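Compound exposure: 48 hours, 5 concentrations, 96-well plates. At the GI50, growth is halved.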 Activity calls are given as the source filed them. No stated cut-off is given here; in the data, active = GI50 up to about 1.1 µM and inactive = higher.

Assays:
Experiment in all cases: DTP human tumour cell line panel, 48 h
ACHN = tested on: ACHN
EKVX = tested on: EKVX
SN12C = tested on: SN12C
IGROV-1 = tested on: IGROV-1
NCI/ADR-RES = tested on: NCI/ADR-RES
TK-10 = tested on: TK-10
M14 = tested on: M14
HOP-92 = tested on: HOP-92
HT-29 = tested on: HT-29
T47D = tested on: T47D
MCF7 = tested on: MCF7
SNB-75 = tested on: SNB-75
Malme-3M = tested on: Malme-3M
NCI-H522 = tested on: NCI-H522
SF-295 = tested on: SF-295
K562 = tested on: K562
SF-268 = tested on: SF-268
DU-145 = tested on: DU-145
HL-60 = tested on: HL-60
OVCAR-3 = tested on: OVCAR-3

Measured: GI50

Nc1ccc2nc(-c3cccc(Cl)c3)cc(O)c2c1
inactive: ACHN 5.93 µM | EKVX 42.6 µM | SN12C 8.38 µM | IGROV-1 29.3 µM | NCI/ADR-RES 3.56 µM | TK-10 2.65 µM | M14 5.56 µM | HOP-92 2.84 µM | HT-29 3.41 µM | T47D 5.96 µM | MCF7 3.46 µM | SNB-75 2.15 µM | Malme-3M 3.26 µM | NCI-H522 2.34 µM

Cc1cn(C2OC(CO[Si](C)(C)C(C)(C)C)C(N(C)O[Si](C)(C)C(C)(C)C)C2[Se]c2ccccc2)c(=O)[nH]c1=O (centres undefined)
inactive: ACHN 3.92 µM | SF-295 4.15 µM | SN12C 5.65 µM | IGROV-1 8.17 µM | K562 7.59 µM | SF-268 2.75 µM | NCI/ADR-RES 13.2 µM | DU-145 8.93 µM | HL-60 > 100 µM | TK-10 5.24 µM | M14 8.3 µM | HOP-92 1.9 µM | HT-29 3.34 µM | OVCAR-3 4.39 µM | MCF7 4.71 µM | SNB-75 4.79 µM | Malme-3M 11.6 µM | NCI-H522 3.25 µM

O=c1cc(N2CCCC2)[nH]c(=O)n1Cc1ccccc1
inactive: ACHN > 100 µM | EKVX > 100 µM | SF-295 > 100 µM | SN12C > 100 µM | IGROV-1 > 100 µM | K562 > 100 µM | NCI/ADR-RES > 100 µM | DU-145 > 100 µM | HL-60 > 100 µM | TK-10 > 100 µM | M14 > 100 µM | HOP-92 > 100 µM | HT-29 > 100 µM | MCF7 > 100 µM | SNB-75 > 100 µM | Malme-3M > 100 µM | NCI-H522 > 100 µM

O=C(/C=C/c1c[nH]c2ccccc12)c1ccccc1O
inactive: ACHN 12.6 µM | EKVX 5.97 µM | SF-295 10.4 µM | SN12C 13.8 µM | IGROV-1 3.83 µM | K562 5.32 µM | SF-268 16.6 µM | DU-145 11.7 µM | HL-60 13.6 µM | TK-10 18.3 µM | M14 14 µM | HOP-92 4.68 µM | HT-29 15.1 µM | OVCAR-3 5.05 µM | T47D 1.75 µM | MCF7 3.1 µM | SNB-75 11.6 µM | Malme-3M 11.7 µM | NCI-H522 7.64 µM

CCC(=O)O[C@H]1CC[C@H]2[C@@H]3CCC4=C/C(=N/NC(=O)c5cccc6c(=O)c7ccccc7[nH]c56)CC[C@]4(C)[C@H]3CC[C@]12C
inactive: ACHN > 25 µM | EKVX > 25 µM | SF-295 > 25 µM | SN12C > 25 µM | IGROV-1 > 25 µM | K562 > 25 µM | SF-268 > 25 µM | NCI/ADR-RES > 25 µM | TK-10 > 25 µM | M14 > 25 µM | HOP-92 > 25 µM | HT-29 > 25 µM | OVCAR-3 > 25 µM | T47D > 25 µM | MCF7 > 25 µM | SNB-75 > 25 µM | NCI-H522 > 25 µM

CC12ON=C(c3ccccc3)N1C=CN1C(c3ccccc3)=NOC12 (centres undefined)
inactive: ACHN > 100 µM | EKVX > 100 µM | SF-295 > 100 µM | IGROV-1 > 100 µM | SF-268 > 100 µM | NCI/ADR-RES > 100 µM | DU-145 > 100 µM | TK-10 > 100 µM | M14 > 100 µM | OVCAR-3 > 100 µM | MCF7 > 100 µM | SNB-75 > 100 µM | Malme-3M > 100 µM | NCI-H522 > 100 µM

O=C(O)c1cc2ccccc2oc1=O [COUMARIN-3-CARBOXYLIC ACID]
inactive: ACHN > 100 µM | EKVX > 100 µM | SF-295 > 100 µM | SN12C > 100 µM | IGROV-1 > 100 µM | K562 > 100 µM | SF-268 > 100 µM | NCI/ADR-RES > 100 µM | DU-145 > 100 µM | HL-60 > 100 µM | TK-10 > 100 µM | M14 > 100 µM | HOP-92 > 100 µM | HT-29 > 100 µM | OVCAR-3 > 100 µM | MCF7 > 100 µM | SNB-75 > 100 µM | Malme-3M > 100 µM | NCI-H522 > 100 µM

CCCCc1ccc2[n+](c1)C(C(=O)OCC)=PC2 (centres undefined)
inactive: ACHN > 100 µM | EKVX > 100 µM | SF-295 > 100 µM | SN12C > 100 µM | IGROV-1 > 100 µM | SF-268 > 100 µM | DU-145 > 100 µM | HL-60 40.7 µM | TK-10 > 100 µM | M14 > 100 µM | HOP-92 > 100 µM | HT-29 42.8 µM | OVCAR-3 > 100 µM | MCF7 30.7 µM | SNB-75 44.7 µM | Malme-3M > 100 µM | NCI-H522 54.2 µM

CC(=O)O[C@@H]1C=C(C)[C@H](CBr)O[C@@]2(C)CC[C@H](Br)C(C)(C)[C@H]12
inactive: ACHN > 100 µM | EKVX > 100 µM | SF-295 > 100 µM | SN12C > 100 µM | IGROV-1 > 100 µM | K562 25.3 µM | SF-268 > 100 µM | NCI/ADR-RES 2.94 µM | DU-145 > 100 µM | HL-60 91.2 µM | TK-10 > 100 µM | M14 > 100 µM | HOP-92 > 100 µM | HT-29 > 100 µM | MCF7 > 100 µM | SNB-75 > 100 µM | NCI-H522 38.2 µM

O=CC1C[C@@H](N2C(=O)O[C@@H](c3ccccc3)[C@H]2c2ccccc2)[C@@H]1COCc1ccccc1 (some centres undefined)
inactive: ACHN 24.8 µM | EKVX 20 µM | SF-295 17.3 µM | SN12C 17 µM | IGROV-1 18.2 µM | K562 21.1 µM | SF-268 17.3 µM | NCI/ADR-RES 26.6 µM | DU-145 17.7 µM | HL-60 18.9 µM | TK-10 20.1 µM | M14 19.1 µM | HOP-92 15 µM | HT-29 17.9 µM | OVCAR-3 14.8 µM | MCF7 17.8 µM | Malme-3M 17 µM | NCI-H522 16.4 µM

CC(=O)n1c2ccc(Br)cc2c2nc3ccccc3nc21
inactive: ACHN > 100 µM | EKVX > 100 µM | SF-295 > 100 µM | SN12C > 100 µM | IGROV-1 > 100 µM | K562 > 100 µM | SF-268 > 100 µM | NCI/ADR-RES > 100 µM | DU-145 > 100 µM | HL-60 > 100 µM | TK-10 > 100 µM | M14 > 100 µM | HOP-92 > 100 µM | HT-29 > 100 µM | OVCAR-3 > 100 µM | MCF7 56.2 µM | SNB-75 > 100 µM | Malme-3M > 100 µM | NCI-H522 > 100 µM
